Laboratory results as given in patent EP4238972A1, “SUBSTITUTED 1,2,4-THIADIAZOLYL PICOLINAMIDES, SALTS OR N-OXIDES THEREOF AND THEIR USE AS HERBICIDALLY ACTIVE SUBSTANCES” (Bayer AG, priority 2022, dated 2023).

Experiments:
Assay type in all cases: in vivo
[1] = test system: Echinochloa crus-galli; assay: Herbicidal pre-emergence action; settings: 1280 g/ha, visual grading after ca. 3 weeks vs untreated controls
Description: (§1) Seeds of mono- and dicotyledonous weed plants were sown in plastic pots (double sowings with one species of mono- and one species of dicotyledonous weed plants per pot), in sandy loam, and covered with soil. The compounds according to the invention, formulated in the form of wettable powders (WP) or as emulsifiable concentrates (EC), were applied to the surface of the covering soil as an aqueous suspension or as an emulsion, with the addition of 0.5% of an additive, at an application rate of 600 litres of water per hectare (converted). Following treatment, the pots were placed in a greenhouse and kept under optimum growth conditions for the test plants. The visual grading of the damage to the test plants is carried out after ca. 3 weeks in comparison to untreated controls (herbicidal effect in percent (%): 100% effect = plants have died, 0% effect = as control plants).

[2] = test system: Amaranthus retroflexus; assay: Herbicidal pre-emergence action; settings: visual grading after ca. 3 weeks vs untreated controls
Description: as §1, with “plants). Seeds of mono- and dicotyledonous weed plants were sown in plastic pots (double sowings with one species of mono- and one species of dicotyledonous weed plants per pot), in sandy loam, and covered with soil. The compounds according to the invention, formulated in the form of wettable powders (WP) or as emulsifiable concentrates (EC), were applied to the surface of the covering soil as an aqueous suspension or as an emulsion, with the addition of 0.5% of an additive, at an application rate of 600 litres of water per hectare (converted). Following treatment, the pots were placed in a greenhouse and kept under optimum growth conditions for the test plants. The visual grading of the damage to the test plants is carried out after ca. 3 weeks in comparison to untreated controls (herbicidal effect in percent (%): 100% effect = plants have died, 0% effect = as control plants).” for “plants).”

[3] = test system: Matricaria inodora; assay: Herbicidal pre-emergence action; settings: visual grading after ca. 3 weeks vs untreated controls
Description: as §1, with “plants). Seeds of mono- and dicotyledonous weed plants were sown in plastic pots (double sowings with one species of mono- and one species of dicotyledonous weed plants per pot), in sandy loam, and covered with soil. The compounds according to the invention, formulated in the form of wettable powders (WP) or as emulsifiable concentrates (EC), were applied to the surface of the covering soil as an aqueous suspension or as an emulsion, with the addition of 0.5% of an additive, at an application rate of 600 litres of water per hectare (converted). Following treatment, the pots were placed in a greenhouse and kept under optimum growth conditions for the test plants. The visual grading of the damage to the test plants is carried out after ca. 3 weeks in comparison to untreated controls (herbicidal effect in percent (%): 100% effect = plants have died, 0% effect = as control plants).” for “plants).”

[4] = test system: Poa annua; assay: Herbicidal pre-emergence action; settings: visual grading after ca. 3 weeks vs untreated controls
Description: as §1, with “plants). Seeds of mono- and dicotyledonous weed plants were sown in plastic pots (double sowings with one species of mono- and one species of dicotyledonous weed plants per pot), in sandy loam, and covered with soil. The compounds according to the invention, formulated in the form of wettable powders (WP) or as emulsifiable concentrates (EC), were applied to the surface of the covering soil as an aqueous suspension or as an emulsion, with the addition of 0.5% of an additive, at an application rate of 600 litres of water per hectare (converted). Following treatment, the pots were placed in a greenhouse and kept under optimum growth conditions for the test plants. The visual grading of the damage to the test plants is carried out after ca. 3 weeks in comparison to untreated controls (herbicidal effect in percent (%): 100% effect = plants have died, 0% effect = as control plants).” for “plants).”

[5] = test system: Stellaria media; assay: Herbicidal pre-emergence action; settings: visual grading after ca. 3 weeks vs untreated controls
Description: as §1, with “plants). Seeds of mono- and dicotyledonous weed plants were sown in plastic pots (double sowings with one species of mono- and one species of dicotyledonous weed plants per pot), in sandy loam, and covered with soil. The compounds according to the invention, formulated in the form of wettable powders (WP) or as emulsifiable concentrates (EC), were applied to the surface of the covering soil as an aqueous suspension or as an emulsion, with the addition of 0.5% of an additive, at an application rate of 600 litres of water per hectare (converted). Following treatment, the pots were placed in a greenhouse and kept under optimum growth conditions for the test plants. The visual grading of the damage to the test plants is carried out after ca. 3 weeks in comparison to untreated controls (herbicidal effect in percent (%): 100% effect = plants have died, 0% effect = as control plants).” for “plants).”

[6] = test system: Echinochloa crus-galli; assay: Herbicidal post-emergence action; settings: 1280 g/ha, visual assessment after ca. 3 weeks vs untreated controls
Description: (§2) Seeds of mono- and dicotyledonous weed plants were sown in plastic pots (double sowings with one species of mono- and one species of dicotyledonous weed plants per pot), in sandy loam, covered with soil and grown under controlled growth conditions. 2 to 3 weeks after sowing, the test plants were sprayed in the single-leaf stage. The compounds according to the invention, formulated in the form of wettable powders (WP) or as emulsifiable concentrates (EC), were sprayed onto the green plant parts as an aqueous suspension or as an emulsion, with the addition of 0.5% of an additive, at an application rate of 600 litres of water per hectare (converted). The test plants were placed in the greenhouse for ca. 3 weeks under optimum growth conditions, and then the effect of the preparations is assessed visually in comparison with untreated controls (herbicidal effect in percent (%): 100% effect = plants have died, 0% effect = as control plants).

[7] = test system: Stellaria media; assay: Herbicidal post-emergence action; settings: 1280 g/ha, visual assessment after ca. 3 weeks vs untreated controls
Description: as §2

[8] = test system: Amaranthus retroflexus; assay: Herbicidal post-emergence action; settings: visual assessment after ca. 3 weeks vs untreated controls
Description: as §2, with “plants). Seeds of mono- and dicotyledonous weed plants were sown in plastic pots (double sowings with one species of mono- and one species of dicotyledonous weed plants per pot), in sandy loam, covered with soil and grown under controlled growth conditions. 2 to 3 weeks after sowing, the test plants were sprayed in the single-leaf stage. The compounds according to the invention, formulated in the form of wettable powders (WP) or as emulsifiable concentrates (EC), are sprayed onto the green plant parts as an aqueous suspension or as an emulsion, with the addition of 0.5% of an additive, at an application rate of 600 litres of water per hectare (converted). The test plants were placed in the greenhouse for ca. 3 weeks under optimum growth conditions, and then the effect of the preparations is assessed visually in comparison with untreated controls (herbicidal effect in percent (%): 100% effect = plants have died, 0% effect = as control plants).” for “plants).”

[9] = test system: Poa annua; assay: Herbicidal post-emergence action; settings: visual assessment after ca. 3 weeks vs untreated controls
Description: as §2, with “plants). Seeds of mono- and dicotyledonous weed plants were sown in plastic pots (double sowings with one species of mono- and one species of dicotyledonous weed plants per pot), in sandy loam, covered with soil and grown under controlled growth conditions. 2 to 3 weeks after sowing, the test plants were sprayed in the single-leaf stage. The compounds according to the invention, formulated in the form of wettable powders (WP) or as emulsifiable concentrates (EC), are sprayed onto the green plant parts as an aqueous suspension or as an emulsion, with the addition of 0.5% of an additive, at an application rate of 600 litres of water per hectare (converted). The test plants were placed in the greenhouse for ca. 3 weeks under optimum growth conditions, and then the effect of the preparations is assessed visually in comparison with untreated controls (herbicidal effect in percent (%): 100% effect = plants have died, 0% effect = as control plants).” for “plants).”

[10] = test system: Setaria viridis; assay: Herbicidal post-emergence action; settings: visual assessment after ca. 3 weeks vs untreated controls
Description: as §2, with “plants). Seeds of mono- and dicotyledonous weed plants were sown in plastic pots (double sowings with one species of mono- and one species of dicotyledonous weed plants per pot), in sandy loam, covered with soil and grown under controlled growth conditions. 2 to 3 weeks after sowing, the test plants were sprayed in the single-leaf stage. The compounds according to the invention, formulated in the form of wettable powders (WP) or as emulsifiable concentrates (EC), are sprayed onto the green plant parts as an aqueous suspension or as an emulsion, with the addition of 0.5% of an additive, at an application rate of 600 litres of water per hectare (converted). The test plants were placed in the greenhouse for ca. 3 weeks under optimum growth conditions, and then the effect of the preparations is assessed visually in comparison with untreated controls (herbicidal effect in percent (%): 100% effect = plants have died, 0% effect = as control plants).” for “plants).”

[11] = test system: Veronica persica; assay: Herbicidal post-emergence action; settings: visual assessment after ca. 3 weeks vs untreated controls
Description: as §2, with “plants). Seeds of mono- and dicotyledonous weed plants were sown in plastic pots (double sowings with one species of mono- and one species of dicotyledonous weed plants per pot), in sandy loam, covered with soil and grown under controlled growth conditions. 2 to 3 weeks after sowing, the test plants were sprayed in the single-leaf stage. The compounds according to the invention, formulated in the form of wettable powders (WP) or as emulsifiable concentrates (EC), are sprayed onto the green plant parts as an aqueous suspension or as an emulsion, with the addition of 0.5% of an additive, at an application rate of 600 litres of water per hectare (converted). The test plants were placed in the greenhouse for ca. 3 weeks under optimum growth conditions, and then the effect of the preparations is assessed visually in comparison with untreated controls (herbicidal effect in percent (%): 100% effect = plants have died, 0% effect = as control plants).” for “plants).”

[12] = test system: Lolium rigidum; assay: Herbicidal pre-emergence action; settings: visual grading after ca. 3 weeks vs untreated controls
Description: as §1, with “plants). Seeds of mono- and dicotyledonous weed plants were sown in plastic pots (double sowings with one species of mono- and one species of dicotyledonous weed plants per pot), in sandy loam, and covered with soil. The compounds according to the invention, formulated in the form of wettable powders (WP) or as emulsifiable concentrates (EC), were applied to the surface of the covering soil as an aqueous suspension or as an emulsion, with the addition of 0.5% of an additive, at an application rate of 600 litres of water per hectare (converted). Following treatment, the pots were placed in a greenhouse and kept under optimum growth conditions for the test plants. The visual grading of the damage to the test plants is carried out after ca. 3 weeks in comparison to untreated controls (herbicidal effect in percent (%): 100% effect = plants have died, 0% effect = as control plants).” for “plants).”

[13] = test system: Kochia scoparia; assay: Herbicidal post-emergence action; settings: visual assessment after ca. 3 weeks vs untreated controls
Description: as §2, with “plants). Seeds of mono- and dicotyledonous weed plants were sown in plastic pots (double sowings with one species of mono- and one species of dicotyledonous weed plants per pot), in sandy loam, covered with soil and grown under controlled growth conditions. 2 to 3 weeks after sowing, the test plants were sprayed in the single-leaf stage. The compounds according to the invention, formulated in the form of wettable powders (WP) or as emulsifiable concentrates (EC), are sprayed onto the green plant parts as an aqueous suspension or as an emulsion, with the addition of 0.5% of an additive, at an application rate of 600 litres of water per hectare (converted). The test plants were placed in the greenhouse for ca. 3 weeks under optimum growth conditions, and then the effect of the preparations is assessed visually in comparison with untreated controls (herbicidal effect in percent (%): 100% effect = plants have died, 0% effect = as control plants).” for “plants).”

[14] = test system: Veronica persica; assay: Herbicidal pre-emergence action; settings: 1280 g/ha, visual grading after ca. 3 weeks vs untreated controls
Description: as §1

[15] = test system: Setaria viridis; assay: Herbicidal pre-emergence action; settings: 1280 g/ha, visual grading after ca. 3 weeks vs untreated controls
Description: as §1

[16] = test system: Alopecurus myosuroides; assay: Herbicidal post-emergence action; settings: 1280 g/ha, visual assessment after ca. 3 weeks vs untreated controls
Description: as §2

[17] = test system: Lolium rigidum; assay: Herbicidal post-emergence action; settings: 1280 g/ha, visual assessment after ca. 3 weeks vs untreated controls
Description: as §2

[18] = test system: Matricaria inodora; assay: Herbicidal post-emergence action; settings: 1280 g/ha, visual assessment after ca. 3 weeks vs untreated controls
Description: as §2

| SMILES | herbicidal effect ECHCG [1] | herbicidal effect AMARE ([2]; 1280 g/ha) | herbicidal effect MATIN ([3]; 1280 g/ha) | herbicidal effect POAAN ([4]; 1280 g/ha) | herbicidal effect STEME ([5]; 1280 g/ha) | herbicidal effect STEME [7] | herbicidal effect AMARE ([8]; 320 g/ha) | herbicidal effect AMARE ([8]; 1280 g/ha) | herbicidal effect POAAN ([9]; 320 g/ha) | herbicidal effect POAAN ([9]; 1280 g/ha) | herbicidal effect SETVI ([10]; 1280 g/ha) | herbicidal effect VERPE ([11]; 320 g/ha) | herbicidal effect VERPE ([11]; 1280 g/ha) | herbicidal effect LOLRI ([12]; 1280 g/ha) | herbicidal effect POAAN ([4]; 320 g/ha) | herbicidal effect KCHSC ([13]; 320 g/ha) | herbicidal effect KCHSC ([13]; 1280 g/ha) | also measured |
| --- | --- | --- | --- | --- | --- | --- | --- | --- | --- | --- | --- | --- | --- | --- | --- | --- | --- | --- |
| O=C(Nc1ncns1)c1nc(Cl)ccc1Br [Example I-039, 3-bromo-6-chloro-N-(1,2,4-thiadiazol-5-yl)pyridine-2-carboxamide] | 90% | 100% | 100% | 90% | 90% | 90% | 100% | 100% | 90% | 90% | 90% | 90% | 100% |  |  |  |  | herbicidal effect ECHCG [6]: 90% |
| O=C(Nc1ncns1)c1nc(Cl)ccc1OC(F)(F)F [Example I-013, 6-chloro-N-(1,2,4-thiadiazol-5-yl)-3-(trifluoromethoxy)pyridine-2-carboxamide] |  | 100% |  | 100% | 90% | 90% |  | 100% | 90% | 100% |  |  |  | 90% | 100% | 90% | 100% | herbicidal effect AMARE ([2]; 320 g/ha): 90% |
| O=C(Nc1ncns1)c1ncc(Cl)cc1C(F)(F)F [Example I-036, 5-chloro-N-(1,2,4-thiadiazol-5-yl)-3-(trifluoromethyl)pyridine-2-carboxamide] |  | 90% |  |  |  |  |  | 90% |  |  |  |  | 90% |  |  |  |  | herbicidal effect VERPE [14]: 90% |
| O=C(Nc1nc(Cl)ns1)c1nc(F)ccc1Br [Example I-017, 3-bromo-N-(3-chloro-1,2,4-thiadiazol-5-yl)-6-fluoro-pyridine-2-carboxamide] | 90% | 100% | 100% | 90% | 90% | 90% | 90% | 90% | 90% | 90% | 90% | 90% | 90% | 90% | 90% | 90% | 90% | herbicidal effect SETVI [15]: 100%; herbicidal effect LOLRI ([12]; 320 g/ha): 90%; herbicidal effect MATIN ([3]; 320 g/ha): 100%; herbicidal effect STEME ([5]; 320 g/ha): 90%; herbicidal effect ALOMY [16]: 90%; herbicidal effect LOLRI [17]: 90%; herbicidal effect MATIN [18]: 90%; herbicidal effect SETVI ([10]; 320 g/ha): 90% |
